Tests used:
[1] = test system: cancer-bearing mouse having a cancer site in the left hindlimb; experiment: In vivo kinetics by fluorescent imaging in cancer-bearing mouse; settings: caudal vein dosing, ICG 0.5 mg/ml; FIG. 17A-C, 18A
Description: After the gelatin-ICG complex 1 was dosed from the caudal vein of a cancer-bearing mouse having a cancer site in the left hindlimb, images were taken over time with a fluorescent imaging apparatus (GE Healthcare), and in vivo kinetics of the gelatin-ICG complex 1 were evaluated.
Furthermore, as a comparative example, ICG alone at the same concentration (0.5 mg/ml) was intravenously dosed to a cancer-bearing mouse, and a similar evaluation was performed. Changes with time in the fluorescent imaging after dosing the gelatin-ICG complex 1 are illustrated in FIG. 17A. Changes with time after dosing ICG alone are illustrated in FIG. 17B. Changes with time in the fluorescence intensity in these cancer tissues are illustrated in FIG. 17C.
A gelatin-ICG complex 7 including a gelatin derivative 7 (DSPE 67% introduced) fluorescently labeled with Cy5.5 and ICG was prepared and dosed to a cancer-bearing mouse in the same manner as in Example 15 to evaluate in vivo kinetics of the gelatin derivative 7 itself. Changes with time in the fluorescent imaging are illustrated in FIG. 18A. Furthermore, ICG alone at the same concentration was dosed to a cancer-bearing mouse as a comparative example. Changes with time in the fluorescent imaging are illustrated in FIG. 18B.

[2] = Stability: absorption spectrum with time in PBS or PBS containing albumin at 37° C.; format: physicochemical
Description: To evaluate stability of the gelatin-ICG complex 1, the gelatin-ICG complex 1 was allowed to stand in PBS (phosphate buffered saline) or in PBS containing albumin (40 mg/mL) at 37° C., and the absorption spectrum was measured with time.

[3] = Absorption spectrum / absorbance at 780 nm with a spectrophotometer; format: physicochemical; settings: ICG 0.5 mg/mL, gelatin 40 mg/mL; FIG. 2, FIG. 5
Description: The absorption spectrum of the obtained gelatin-ICG complex 1 was measured with a spectrophotometer (Beckman Coulter, Inc.).
The absorption spectrum and the absorbance at 780 nm of the gelatin-ICG complex 1 are illustrated in FIGS. 2 and 3, respectively. The absorption spectrum and the absorbance at 780 nm of ICG are also illustrated in FIGS. 2 and 3, respectively, as a comparative example.
The gelatin-ICG complex 1, 3, 4, 5, or 6 (final concentration, 40 or 100 mg/mL) and an ICG solution (final concentration, 0.5 mg/mL) were mixed to obtain a gelatin-ICG complex.
The complexes and the mixtures were prepared at final concentrations of ICG and a gelatin of 0.5 mg/mL and 40 mg/mL, respectively.
An ICG solution (final concentration, 0.1 mg/mL) and a gelatin (weight-average molecular weight, 10,000; final concentration, 100 m g/mL) were mixed to obtain a mixture (gelatin-ICG mixture) of a gelatin and ICG. The absorption spectrum of the obtained gelatin-ICG mixture was measured with a spectrophotometer. The results are illustrated in FIG. 19.

## CC1(C)C(/C=C/C=C/C=C/C=C2/N(CCCCS(=O)(=O)[O-])c3ccc4ccccc4c3C2(C)C)=[N+](CCCCS(=O)(=O)[O-])c2ccc3ccccc3c21.[Na+] [ICG, indocyanine green]
[1]
  distribution of ICG to cancer tissue, fluorescence with time: distributed to the cancer tissue temporarily after dosing ICG alone and eliminated with time
[2]; PBS containing albumin (40 mg/mL)
  changes with time in absorption spectrum / absorbance (λmax): stability was slightly inferior as compared with the stability of the gelatin-ICG complex 1
[2]; PBS without albumin
  changes with time in absorption spectrum / absorbance (λmax): changed greatly with time
[3]
  absorption spectrum (associate around 700 nm, monomer around 780 nm): absorbance on the long wavelength side was low

Source: patent US9132203B2, “Complex and contrast agent for photoimaging using the same” (CANON KABUSHIKI KAISHA, priority 2010, dated 2015)
